Here are results for 19 molecules from patent US9884067B2, “Androgen receptor down-regulating agents and uses thereof” (UNIVERSITY OF MARYLAND EASTERN SHORE, priority 2013, dated 2018).

In one data set the test system is LNCaP cells. In words: MTT colorimetric anti-proliferative assay. It counts as cell-based, human. Conditions: for GI50: LNCaP, MTT, 7 days; for fold loss/reduction in anti-proliferative activity: relative to lead compound 5 (or parent 32). Here is the method: The cells were treated for 7 days with renewal of test compound and media on day 4. On the 7th day, medium was renewed and MTT (3-(4,5-dimethylthiazol-2-yl)-2,5-diphenyl-2H-tetrazolium bromide) (Sigma, St Louis, Mo., USA) solution (0.5 mg MTT per ml of media) was added to the medium such that the ratio of MTT: medium was 1:10. The cells were incubated with MTT for 2 hours. The medium was then aspirated and DMSO was added to solubilize the violet MTT-formazan product.

Another data set concerns the target T1, AR (Homo sapiens, UniProt P10275, T878A).
T1 construct: host or cells: LNCaP
T1 sequence (P10275 1-920 T878A): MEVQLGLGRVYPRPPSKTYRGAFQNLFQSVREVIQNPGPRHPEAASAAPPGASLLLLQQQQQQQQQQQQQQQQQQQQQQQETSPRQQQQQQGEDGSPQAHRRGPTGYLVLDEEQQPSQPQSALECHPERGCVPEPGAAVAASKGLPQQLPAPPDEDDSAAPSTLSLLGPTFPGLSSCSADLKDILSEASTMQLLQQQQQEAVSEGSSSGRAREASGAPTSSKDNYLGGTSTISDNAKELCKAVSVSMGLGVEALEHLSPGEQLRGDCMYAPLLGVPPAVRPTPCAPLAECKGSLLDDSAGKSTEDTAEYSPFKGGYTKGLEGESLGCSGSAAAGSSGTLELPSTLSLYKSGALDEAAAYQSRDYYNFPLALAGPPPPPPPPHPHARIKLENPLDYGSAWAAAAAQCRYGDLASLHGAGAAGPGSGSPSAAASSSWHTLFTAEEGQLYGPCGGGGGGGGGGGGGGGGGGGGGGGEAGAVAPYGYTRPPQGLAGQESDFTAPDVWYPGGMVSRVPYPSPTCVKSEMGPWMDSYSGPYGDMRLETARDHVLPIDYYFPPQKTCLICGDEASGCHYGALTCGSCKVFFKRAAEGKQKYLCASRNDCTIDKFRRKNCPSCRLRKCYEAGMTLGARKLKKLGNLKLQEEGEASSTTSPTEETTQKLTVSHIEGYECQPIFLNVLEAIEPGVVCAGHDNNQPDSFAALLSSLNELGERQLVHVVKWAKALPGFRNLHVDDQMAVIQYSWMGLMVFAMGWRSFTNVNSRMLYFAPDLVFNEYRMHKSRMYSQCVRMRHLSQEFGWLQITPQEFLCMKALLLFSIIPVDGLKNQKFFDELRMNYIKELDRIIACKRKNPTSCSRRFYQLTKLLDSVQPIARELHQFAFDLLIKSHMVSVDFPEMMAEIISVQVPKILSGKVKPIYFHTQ
In words: AR down-regulation, western blot analysis in LNCaP cells. It counts as cell-based. Conditions: 24 h, western blot. Here is the method:
For the Western blot analyses, LNCaP or CWR22v1 prostate cancer cells were cultured. The cells were then treated with the indicated compounds and whole cell lysates were prepared using RIPA lysis buffer (Sigma Aldrich) and protease and phosphatase inhibitors (Sigma Aldrich). All of the antibodies were ordered from cell signaling technology. Protein content was determined using the Bradford Assay (Bio-Rad, Hercules, Calif., USA). Protein was subjected to SDS-PAGE and transferred onto nitrocellulosemembrane. Membranes were then incubated with secondary antibody (cell signaling technology) at room temperature for 1 hour. Bands were visualized by chemiluminescence (Millipore). Protein expression was normalized to β-actin and densitometry was carried out using Image J or ImageQuant 5.0 (Molecular Dynamics, Sunnyvale, Calif., USA). CWR22Rv1 cells were used for endogenous levels of splice variant AR-3. Protein levels were analyzed with respective antibodies; full length AR and β-actin antibodies were purchased from cell signaling, antibody specific for splice variant AR-3 was obtained from Dr. Yun Qiu, University of Maryland, School of Medicine, Baltimore.

Setting [1] is: Table 4, read-out: GI50 of C-3 modified compounds.
Where [2] appears, read: Homo sapiens, 168 h, Table 2, read-out: GI50 of C-17 modified compounds.
[3] abbreviates: Table 2, read-out: GI50 of C-17 modified compounds.
The mark [4] stands for this setting: Homo sapiens, 168 h, Table 4, read-out: GI50 of C-3 modified compounds.

Where two headings read alike, the source gives them in different places.

Consider “3β-(3-(Oxycarbonyl)phenylacetic acid)-17-(1H-benzimidazol-1-yl)-androsta-5,16-diene [Compound 44]”, for which, in the data set with LNCaP cells (setting [1]), the GI50 was 7.78 µM.

Regarding `CON=C1C=C2CC[C@@H]3[C@H](CC[C@]4(C)C(n5cnc6ccccc65)=CC[C@@H]34)[C@@]2(C)CC1` (mixture of isomers) [Compound 38, 3-((EZ)-O-Methyloxime)-17-(1H-Benzimidazol-1-yl)-androsta-4,16-diene], in the data set with LNCaP cells (setting [1]), the GI50 came to 3.38 µM.

On to `C[C@]12CCC(=NOCc3ccccc3)C=C1CC[C@@H]1[C@@H]2CC[C@]2(C)C(n3cnc4ccccc43)=CC[C@@H]12` (mixture of isomers) [Compound 39, 3-((EZ)-(O-Phenylmethyl)oxime)-17-(1H-Benzimidazol-1-yl)-androsta-4,16-diene], for which the GI50 in the data set on LNCaP cells (setting [1]) came to 5.57 µM.

With `Cc1cc2ncn(C3=CC[C@H]4[C@@H]5CC=C6C[C@@H](O)CC[C@]6(C)[C@H]5CC[C@]34C)c2cc1C` [Compound 17, 3β-Hydroxy-17-(5,6-dimethyl-1H-benzimidazol-1-yl)-androsta-5,16-diene], the melting point was in the range of 194 to 196 °C. In the data set with LNCaP cells (setting [2]), the GI50 came to 42.7 µM. Further, the “AR down-regulation (ARD) activity, in words” value (shortened to “AR down-regulation”) at AR is recorded as “substantial loss”.

For `C[C@]12CC[C@H](O)CC1=CC[C@@H]1[C@@H]2CC[C@]2(C)C(n3cnc4cc(C#N)ccc43)=CC[C@@H]12` [Compound 18, 3β-Hydroxy-17-(5(6)-nitrile-1H-benzimidazol-1-yl)-androsta-5,16-diene], in the data set with LNCaP cells (setting [3]), the GI50 turned out to be 2.81 µM. For the same molecule, the “AR down-regulation” value on AR was “diminished AR down-regulation (ARD) activity”.

Molecule `COc1ccc2ncn(C3=CC[C@H]4[C@@H]5CC=C6C[C@@H](O)CC[C@]6(C)[C@H]5CC[C@]34C)c2c1` [Compound 19, 3β-Hydroxy-17-(6-methoxy-1H-benzimidazol-1-yl)-androsta-5,16-diene] displayed a melting point of 169 to 179 °C. Also, the GI50 in the data set with LNCaP cells (setting [3]) was found to be 4.26 µM. Also, the “AR down-regulation” value on AR is listed as “no modulation of ARDA”.

For the molecule `C[C@]12CC[C@H](O)CC1=CC[C@@H]1[C@@H]2CC[C@]2(C)C(n3cnc4cc5ccccc5cc43)=CC[C@@H]12` [Compound 20, 3β-Hydroxy-17-(1H-benzo[f]benzimidazol-1-yl)-androsta-5,16-diene], the melting point lay in the range of 150 to 152 °C. Also, the GI50 with LNCaP cells (setting [2]) turned out to be 19.1 µM. Besides, on AR, the “AR down-regulation” value was “significant loss of ARDA”.

With `C[C@]12CC[C@H](O)CC1=CC[C@@H]1[C@@H]2CC[C@]2(C)C(n3cnc4c(Cl)ncnc43)=CC[C@@H]12` [Compound 21, 3β-Hydroxy-17-(6-Chloro-9H-purin-9-yl)-androsta-5,16-diene], the melting point lay in the range of 272 to 274 °C. Moreover, in the data set with LNCaP cells (setting [3]), the GI50 amounted to 13.5 µM. The “fold loss/reduction in anti-proliferative activity” value (“fold loss/reduction” below) in the data set with LNCaP cells amounted to 4 fold.

`C[C@]12CC[C@H](O)CC1=CC[C@@H]1[C@@H]2CC[C@]2(C)C(n3c(Cl)nc4ccccc43)=CC[C@@H]12` [Compound 22, 3β-Hydroxy-17-(2-chloro-1H-benzimidazol-1-yl)-androsta-5,16-diene]: the melting point was in the range of 83 to 86 °C. Besides, the GI50 in the data set with LNCaP cells (setting [2]) came out at 10.1 µM. Moreover, the “fold loss/reduction” value in the data set on LNCaP cells is listed as 3 fold.

With `CC(C)CCNCC1=C(n2cnc3ccccc32)[C@@]2(C)CC[C@H]3[C@@H](CC=C4C[C@@H](O)CC[C@@]43C)[C@@H]2C1` [Compound 25, 3β-Hydroxy-17-(1H-benzimidazol-1-yl)-16-((isopentylamino)methyl)-androsta-5,16-diene], the melting point was 111 to 113 °C. Besides, the “AR down-regulation” value at AR was “significant loss of ARD”.

Regarding `C[C@]12CC[C@H](O)CC1=CC[C@@H]1[C@@H]2CC[C@]2(C)C(n3cnc4ccccc43)=C(CNc3ccccc3)C[C@@H]12` [Compound 28, 3β-Hydroxy-17-(1H-benzimidazol-1-yl)-16-((phenylamino)methyl)-androsta-5,16-diene], the melting point was in the range of 130 to 132 °C. Besides, the GI50 in the data set with LNCaP cells (Homo sapiens, 168 h, LNCaP cells, Table 3, read-out: GI50 of C-16 modified compounds) stood at 22.1 µM. On AR, the “AR down-regulation” value is “significant loss of ARD”.

On to `C[C@]12CCC(=O)C=C1CC[C@@H]1[C@@H]2CC[C@]2(C)C(n3cnc4ccccc43)=CC[C@@H]12` [Compound 32, 17-(1H-Benzimidazol-1-yl)-androsta-4,16-dien-3-one], for which the GI50 with LNCaP cells (setting [4]) amounted to 2.64 µM.

As to `C[C@]12CCC(=O)CC1=CC[C@@H]1[C@@H]2CC[C@]2(C)C(n3cnc4ccccc43)=CC[C@@H]12` [Compound 33, 17-(1H-Benzimidazol-1-yl)-androsta-5,16-dien-3-one], the melting point was 170 to 172 °C. For the same molecule, the GI50 in the data set with LNCaP cells (setting [4]) came to 16 µM. Moreover, the “fold loss/reduction” value with LNCaP cells is listed as ~5 fold.

Consider `C[C@]12CC[C@H](OS(C)(=O)=O)CC1=CC[C@@H]1[C@@H]2CC[C@]2(C)C(n3cnc4ccccc43)=CC[C@@H]12` [Compound 34, 3β-Mesyloxy-17-(1H-benzimidazol-1-yl)-androsta-5,16-dien], for which the GI50 in the data set on LNCaP cells (setting [4]) was 42.1 µM.

As to `Cc1ccc(S(=O)(=O)O[C@H]2CC[C@@]3(C)C(=CC[C@@H]4[C@@H]3CC[C@]3(C)C(n5cnc6ccccc65)=CC[C@@H]43)C2)cc1` [Compound 35, 3β-Tosyloxy-17-(1H-benzimidazol-1-yl)-androsta-5,16-dien], the melting point is 139 to 141 °C. Besides, the GI50 with LNCaP cells (setting [1]) is 47.2 µM.

In turn, `CC1(O)C=C2CC[C@@H]3[C@H](CC[C@]4(C)C(n5cnc6ccccc65)=CC[C@@H]34)[C@@]2(C)CC1` (stereo partly drawn) [Compound 40, 3-Methyl-3-hydroxy-17-(1H-benzimidazol-1-yl)-androsta-4,16-diene] displayed a melting point of 95 to 97 °C. Further, in the data set on LNCaP cells (setting [4]), the GI50 is 13.3 µM. Besides, the “fold loss/reduction” value in the data set with LNCaP cells is recorded as ~5 fold.

As for `C[C@]12CC[C@H](OC(=O)C3CC=CCC3C(=O)O)CC1=CC[C@@H]1[C@@H]2CC[C@]2(C)C(n3cnc4ccccc43)=CC[C@@H]12` (stereo partly drawn) [Compound 45, 3β-(6-(Cyclohex-3-enecaboxylic acid)carboxylate)-17-(1H-benzimidazol-1-yl)-androsta-5,16-diene], the GI50 in the data set with LNCaP cells (setting [1]) stood at 8.22 µM.

For `C[C@]12CC[C@H](OC(=O)COCC(=O)O)CC1=CC[C@@H]1[C@@H]2CC[C@]2(C)C(n3cnc4ccccc43)=CC[C@@H]12` [Compound 46, 3β-(Oxycarbonyl-(methoxy)acetic acid)-17-(1H-benzimidazol-1-yl)-androsta-5,16-diene], the GI50 in the data set on LNCaP cells (setting [1]) was determined as 9.13 µM.

In the case of `C[C@]12CC[C@H](OC(=O)n3cncn3)CC1=CC[C@@H]1[C@@H]2CC[C@]2(C)C(n3cnc4ccccc43)=CC[C@@H]12` [Compound 49, 3β-(1H-1,2,4-Triazole-1-carboxylate)-17-(1H-benzimidazol-1-yl)-androsta-5,16-diene], the GI50 with LNCaP cells (setting [1]) stood at 6.67 µM. Also, the “fold decrease in anti-proliferative activity” value in the data set on LNCaP cells (relative to 47) is listed as ~8 fold.
